In ChEMBL document CHEMBL3046565, “Fungicidal and herbicidal activities of berberine related alkaloids” (2000) one finds inhibition and Activity data, which are given here for 16 compounds.

Common to all, as to type: functional
One assay deals with Pyricularia oryzae. The assay can be described thus: microbe, parasite or virus in culture. The settings on record: 24 h.
The subject of another assay is Ustilago maydis. Put plainly: Antifungal activity against Ustilago maydis on rice plant at 25 ppm after 24 hr. The settings on record: Mycosarcoma maydis.
The test system of assay [1] is Blumeria graminis f. sp. tritici. The assay can be described thus: Antifungal activity against Blumeria graminis f. sp. tritici on wheat plant assessed as disease control at 100 ppm after 24 hr.
The next assay deals with Lemna minor. Put plainly: Herbicidal activity against Lemna minor (common duckweed) at 1 ppm after 9 days relative to control.
Assay [2] concerns Parastagonospora nodorum. Put plainly: Antifungal activity against Phaeosphaeria nodorum on wheat plant assessed as disease control at 100 ppm after 24 hr.
For another assay, the system named is Phytophthora infestans. Put plainly: microbe, parasite or virus in culture. The conditions noted are these: in Oryza sativa, 24 h.
The next assay concerns Rhizoctonia solani. Put plainly: Antifungal activity against Rhizoctonia solani on rice plant at 25 ppm after 24 hr.
The subject of another assay is Puccinia recondita. The assay can be described thus: Antifungal activity against Puccinia recondita on wheat plant assessed as disease control at 100 ppm after 24 hr.
For assay [3], the system named is Agrostis stolonifera var. palustris. The assay can be described thus: Herbicidal activity against Agrostis stolonifera var. palustris at 1 ppm after 9 days relative to control.
For the next assay, the system named is Zymoseptoria tritici. The assay can be described thus: Antifungal activity against Zymoseptoria tritici on wheat plant at 25 ppm after 24 hr.
Assay [4] deals with Parastagonospora nodorum. Put plainly: Antifungal activity against Phaeosphaeria nodorum on wheat plant at 25 ppm after 24 hr.

By inhibition is commonly meant the relative decrease from the control value, in per cent. The low end stands for little suppression, the high end for strong suppression. As for `CCCCc1c2[n+](cc3c(OC)c(OC)ccc13)CCc1cc(OC)c(OC)cc1-2.[Cl-]`, the inhibition at 25 ppm in the assay on Pyricularia oryzae came out at 0%; in the assay with Ustilago maydis, 0%; with Phytophthora infestans, 0%; in the assay with Rhizoctonia solani, 0%; with Zymoseptoria tritici it was 90%; in the assay with Parastagonospora nodorum [4], 0%. Also, the Activity is recorded as 0% in assay [1]; 65% in the assay on Lemna minor; 73% in the assay with Parastagonospora nodorum [2]; 0% in the assay on Puccinia recondita; 0% in [3].
With `COc1cc2c(cc1OC)-c1c(C)c3ccc(OC)c(OC)c3c[n+]1CC2.[Cl-]`, the inhibition at 25 ppm in the assay on Pyricularia oryzae, in the assay with Ustilago maydis, in the assay on Phytophthora infestans, with Rhizoctonia solani, with Zymoseptoria tritici and in the assay with Parastagonospora nodorum [4] was 0% in each case. Moreover, the Activity in assay [1] came out at 0%; in the assay on Lemna minor, 65%; with Parastagonospora nodorum [2] it was 0%; with Puccinia recondita it was 0%; in assay [3], 0%.
Regarding `CCCCCCc1c2[n+](cc3c(OC)c(OC)ccc13)CCc1cc3c(cc1-2)OCO3.[Cl-]`, the inhibition at 25 ppm stood at 0% in the assay on Pyricularia oryzae; 0% in the assay on Ustilago maydis; 0% with Phytophthora infestans; 0% with Rhizoctonia solani; 100% in the assay on Zymoseptoria tritici; 0% in the assay on Parastagonospora nodorum [4]. In addition, the Activity in [1] is reported as 0%; in the assay on Lemna minor, 60%; with Parastagonospora nodorum [2], 87%; with Puccinia recondita, 83%; in assay [3], 0%.
`CCc1c2[n+](cc3c(OC)c(OC)ccc13)CCc1cc(OC)c(OC)cc1-2.[Cl-]`: the inhibition at 25 ppm in the assay on Pyricularia oryzae, in the assay with Ustilago maydis, in the assay with Phytophthora infestans, with Rhizoctonia solani, in the assay on Zymoseptoria tritici and in the assay with Parastagonospora nodorum [4] was 0% each time. Also, the Activity in [1] is recorded as 0%; in the assay on Lemna minor it was 70%; in the assay with Parastagonospora nodorum [2], 0%; with Puccinia recondita it was 0%; in [3], 0%.
As for `COc1ccc2c(c1OC)CN1CCc3cc4c(cc3[C@@H]1[C@@H]2C)OCO4.Cl`, the inhibition at 25 ppm with Pyricularia oryzae, in the assay on Ustilago maydis, in the assay on Phytophthora infestans, with Rhizoctonia solani, in the assay on Zymoseptoria tritici and with Parastagonospora nodorum [4] was 0% each time. Moreover, the Activity (in assay [1]; in the assay with Lemna minor; with Parastagonospora nodorum [2]; in the assay with Puccinia recondita; in [3]) was 0% each time.
For `COc1cc2c(cc1OC)-c1cc3ccc(OC)c(O)c3c[n+]1CC2.[Cl-]` [PALMATRUBINE], the inhibition at 25 ppm with Pyricularia oryzae, in the assay on Ustilago maydis, with Phytophthora infestans, in the assay with Rhizoctonia solani, in the assay with Zymoseptoria tritici and with Parastagonospora nodorum [4] was 0% each time. Further, the Activity (in assay [1]; with Lemna minor; in the assay with Parastagonospora nodorum [2]; in the assay on Puccinia recondita; in [3]) was 0% in each case.
On to `COc1ccc2cc3[n+](cc2c1OC)CCc1cc2c(cc1-3)OCO2.[Cl-]` [BERBERINE CHLORIDE], for which the inhibition at 25 ppm in the assay with Pyricularia oryzae turned out to be 0%; in the assay on Ustilago maydis, 0%; in the assay on Phytophthora infestans, 0%; in the assay on Rhizoctonia solani it was 0%; in the assay with Zymoseptoria tritici, 90%; in the assay with Parastagonospora nodorum [4], 0%. Besides, the Activity is listed as 0% in assay [1]; 75% with Lemna minor; 0% with Parastagonospora nodorum [2]; 0% with Puccinia recondita; 0% in assay [3].
As for `CCCCCCc1c2[n+](cc3c(OC)c(OC)ccc13)CCc1cc(OC)c(OC)cc1-2.[Cl-]` [13-HEXYLPALMATINE], the inhibition at 25 ppm in the assay with Pyricularia oryzae turned out to be 0%; in the assay on Ustilago maydis it was 0%; in the assay with Phytophthora infestans, 0%; in the assay on Rhizoctonia solani, 0%; in the assay with Zymoseptoria tritici it was 100%; with Parastagonospora nodorum [4], 0%. Further, the Activity in assay [1] is 0%; with Lemna minor, 70%; in the assay on Parastagonospora nodorum [2], 80%; with Puccinia recondita, 67%; in assay [3] it was 0%.
Take `COc1ccc2c(C)c3[n+](cc2c1OC)CCc1cc2c(cc1-3)OCO2.[Cl-]`: the inhibition at 25 ppm is 0% in the assay with Pyricularia oryzae; 0% in the assay with Ustilago maydis; 0% in the assay on Phytophthora infestans; 0% in the assay on Rhizoctonia solani; 80% in the assay on Zymoseptoria tritici; 0% in the assay with Parastagonospora nodorum [4]. Further, the Activity in assay [1] was 0%; in the assay with Lemna minor it was 75%; in the assay on Parastagonospora nodorum [2], 0%; in the assay on Puccinia recondita it was 75%; in assay [3] it was 0%.
On to `COc1cc2c(cc1OC)-c1cc3ccc(OC)c(OC)c3c[n+]1CC2.[Cl-]` [PALMATINE CHLORIDE], for which the inhibition at 25 ppm with Pyricularia oryzae was determined as 0%; in the assay with Ustilago maydis, 0%; in the assay with Phytophthora infestans it was 0%; in the assay on Rhizoctonia solani it was 0%; in the assay with Zymoseptoria tritici, 80%; in the assay with Parastagonospora nodorum [4], 0%. Besides, the Activity (in [1]; with Lemna minor; in the assay on Parastagonospora nodorum [2]; with Puccinia recondita; in assay [3]) was 0% each time.
Turning to `CCc1c2[n+](cc3c(OC)c(OC)ccc13)CCc1cc3c(cc1-2)OCO3.[Cl-]`, the inhibition at 25 ppm amounted to 0% in the assay with Pyricularia oryzae; 0% with Ustilago maydis; 0% with Phytophthora infestans; 0% with Rhizoctonia solani; 90% in the assay with Zymoseptoria tritici; 0% with Parastagonospora nodorum [4]. Besides, the Activity worked out at 0% in assay [1]; 70% in the assay on Lemna minor; 60% in the assay on Parastagonospora nodorum [2]; 58% in the assay on Puccinia recondita; 0% in assay [3].
In the case of `CCOc1c(OC)ccc2cc3[n+](cc12)CCc1cc2c(cc1-3)OCO2.[Cl-]` [9-O-ETHYLBERBERRUBINE], the inhibition at 25 ppm is 0% in the assay on Pyricularia oryzae; 0% in the assay on Ustilago maydis; 0% in the assay on Phytophthora infestans; 0% with Rhizoctonia solani; 90% with Zymoseptoria tritici; 0% with Parastagonospora nodorum [4]. Moreover, the Activity was found to be 0% in assay [1]; 70% in the assay on Lemna minor; 0% in the assay on Parastagonospora nodorum [2]; 75% with Puccinia recondita; 0% in assay [3].
Turning to `COc1ccc2c(c1OC)C[N+]1(C)CCc3cc4c(cc3C1=C2C)OCO4.[Cl-]` (stereo unspecified), the inhibition at 25 ppm in the assay on Pyricularia oryzae was 0%; in the assay on Ustilago maydis it was 40%; in the assay with Phytophthora infestans, 0%; with Rhizoctonia solani, 0%; with Zymoseptoria tritici it was 0%; in the assay with Parastagonospora nodorum [4], 0%. Moreover, the Activity (in assay [1]; with Lemna minor; in the assay with Parastagonospora nodorum [2]; with Puccinia recondita; in assay [3]) was 0% in each case.
Take `COc1ccc2c(c1OC)C[N@+]1(C)CCc3cc4c(cc3[C@@H]1[C@H]2O)OCO4.[Cl-]`: the inhibition at 25 ppm in the assay on Pyricularia oryzae, in the assay with Ustilago maydis, in the assay on Phytophthora infestans, with Rhizoctonia solani, with Zymoseptoria tritici and in the assay on Parastagonospora nodorum [4] was 0% each time. Further, the Activity (in assay [1]; in the assay on Lemna minor; in the assay with Parastagonospora nodorum [2]; with Puccinia recondita; in assay [3]) was 0% in each case.
Consider `COc1ccc2c(O)c3[n+](cc2c1OC)CCc1cc2c(cc1-3)OCO2.[Cl-]` [13-HYDROXYBERBERINE], for which the inhibition at 25 ppm in the assay with Pyricularia oryzae was 0%; in the assay with Ustilago maydis, 0%; in the assay with Phytophthora infestans, 40%; in the assay on Rhizoctonia solani, 0%; in the assay with Zymoseptoria tritici, 0%; in the assay on Parastagonospora nodorum [4], 0%. In addition, the Activity in [1] was determined as 41%; in the assay with Lemna minor it was 0%; with Parastagonospora nodorum [2], 0%; in the assay on Puccinia recondita, 67%; in assay [3] it was 0%.
For `COc1ccc2c(c1OC)C[N@@+]1(C)CCc3cc4c(cc3[C@@H]1[C@H]2O)OCO4.[Cl-]`, the inhibition at 25 ppm in the assay on Pyricularia oryzae, in the assay on Ustilago maydis, in the assay on Phytophthora infestans, in the assay with Rhizoctonia solani, in the assay with Zymoseptoria tritici and in the assay with Parastagonospora nodorum [4] was 0% each time. Moreover, the Activity (in assay [1]; in the assay on Lemna minor; in the assay with Parastagonospora nodorum [2]; in the assay with Puccinia recondita; in assay [3]) was 0% each time.
